Where “and” joins values, the source holds several entries; their conditions need not be identical. Identical values can stand only once.
What was measured:
B. subtilis = assay: Minimum inhibitory concentration (MIC), 96-well plates, serial dilutions in LB medium; assay type: cell-based; conditions: Bacillus subtilis; B. subtilis, LB medium; read-out: Minimum inhibitory concentration (MIC)
Description: (§1) Example 12: Determination of the Minimum Inhibitory Concentration (MIC) with Non-Pathogenic E. coli and B. subtilis and/or Pathogenic Strains of S. aureus Including Three MRSA Strains (USA 300, Mu50 and DSM18827) as Well as the Pathogenic Fungus Candida albicans
(§2) Minimum inhibitory concentrations (MIC) for compounds 1 to 11 with non-pathogenic E. coli and B. subtilis and/or pathogenic strains of S. aureus including three MRSA strains (USA 300, Mu50 and DSM18827) as well as the pathogenic fungus Candida albicans were determined in 96-well plates with serial dilutions in LB medium.

Candida albicans = assay: as above; assay type: cell-based; conditions: C. albicans, LB medium, read-out: Minimum inhibitory concentration (MIC)
Description: as §1, §2

[1] = system: S. aureus DSM18827 (MRSA); assay: as above; assay type: cell-based; conditions: Staphylococcus aureus, DSM 11827 / DSM 18827 / MRSA; S. aureus DSM18827 (also printed DSM11827), MRSA, LB medium; read-out: Minimum inhibitory concentration (MIC)
Description: as §1, §2

S. aureus Mu50 (MRSA) = assay: as above; assay type: cell-based; conditions: Staphylococcus aureus; S. aureus Mu50 (MRSA), LB medium; read-out: Minimum inhibitory concentration (MIC)
Description: as §1, §2

S. aureus NCTC 8325 = assay: as above; assay type: cell-based; conditions: Staphylococcus aureus, NCTC8325; S. aureus NCTC 8325, LB medium; read-out: Minimum inhibitory concentration (MIC)
Description: as §1, §2

S. aureus USA 300 (MRSA) = assay: as above; assay type: cell-based; conditions: Staphylococcus aureus; S. aureus USA 300 (MRSA), LB medium; read-out: Minimum inhibitory concentration (MIC)
Description: as §1, §2
Example 21: Determination of the Minimum Inhibitory Concentration (MIC) for the Compounds Represented by the Formulas (14) and (16) with the Pathogenic USA 300 (MRSA) Strain of S. aureus
Minimum inhibitory concentrations (MIC) for the compounds represented by the Formulas (14) and (16) with the pathogenic MRSA strains of S. aureus USA 300 were determined in 96-well plates with serial dilutions in LB medium.

elastase (LasB) [2] = target: elastase (LasB) (Pseudomonas aeruginosa, UniProt P14756); assay: In vitro elastase assay with fluorogenic substrate Abz-peptide-Nba; assay type: biochemical, P. aeruginosa
Chain of elastase (LasB) (Pseudomonas aeruginosa, UniProt P14756) (P14756 198-498): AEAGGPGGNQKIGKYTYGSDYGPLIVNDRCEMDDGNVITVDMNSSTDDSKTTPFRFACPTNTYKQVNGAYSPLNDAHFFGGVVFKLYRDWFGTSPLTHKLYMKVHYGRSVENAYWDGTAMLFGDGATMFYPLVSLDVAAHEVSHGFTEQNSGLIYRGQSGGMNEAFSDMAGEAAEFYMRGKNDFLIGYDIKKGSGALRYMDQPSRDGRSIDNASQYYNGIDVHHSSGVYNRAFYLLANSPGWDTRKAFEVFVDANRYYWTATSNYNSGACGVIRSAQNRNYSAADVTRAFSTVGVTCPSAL
Protocol: Example 16: In Vitro Inhibition of Elastase (LasB) with Compounds 6, 7, and 12
An in-vitro elastase assay was performed according to Cathcart et al. (G. R. Cathcart, B. F. Gilmore, B. Greer, P. Harriott, B. Walker, Bioorganic & medicinal chemistry letters 2009, 19, 6230-6232). For a typical in vitro elastase assay 82 μL buffer (0.05 M TRIS HCl, 2.5 mM CaCl2, pH=7.2) and 5 μL of compound 6 solved in DMSO were added in a 96 well plate. 10 μL of 3 μg/mL elastase (solved in the same Tris/CaCl2 buffer) were added and mixed with the compound. After incubation for 10 min at room temperature, 3 μL fluorogenic substrate Abz-peptide-Nba (2-aminobenzoyl-Ala-Gly-Leu-Ala-4-nitrobenzylamide) in DMF were added and the fluorescence measured for 90 min in one minute steps (excitation at 330 nm, emission at 460 nm). The slope of the resulting graph was used to calculate the enzymatic activity.

elastase (LasB) [3] = target: T1, elastase (LasB) (Pseudomonas aeruginosa, UniProt Q02RJ6); assay: In situ inhibition of elastolytic activity (Elastin-Congo Red) with life cultures of P. aeruginosa PA14; assay type: cell-based
T1 construct: 1.4 mL of the culture was centrifuged and the supernatant filtered through a sterile filter; endogenous in cells; host or cells: P. aeruginosa PA14 culture (supernatant)
T1 sequence (Q02RJ6 198-498): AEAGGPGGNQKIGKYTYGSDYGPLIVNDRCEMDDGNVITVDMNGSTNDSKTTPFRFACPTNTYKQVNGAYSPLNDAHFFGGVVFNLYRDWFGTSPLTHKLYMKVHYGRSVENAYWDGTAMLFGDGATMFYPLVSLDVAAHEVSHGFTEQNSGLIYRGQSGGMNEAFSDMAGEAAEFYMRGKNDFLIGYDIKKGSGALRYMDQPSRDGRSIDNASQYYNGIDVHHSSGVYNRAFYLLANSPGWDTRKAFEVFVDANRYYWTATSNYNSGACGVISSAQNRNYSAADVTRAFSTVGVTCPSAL
Protocol: Example 17: In Situ Inhibition of Elastase (LasB) with Compound 6
The in situ efficacy of Compound 6 was investigated by measuring the concentration dependent inhibition of elastolytic activity with life cultures of P. aeruginosa. The elastase assay was performed according to Calfee et al. (M. W. Calfee, J. P. Coleman, E. C. Pesci, Proceedings of the National Academy of Sciences of the United States of America 2001, 98, 11633-11637.) 10 μL of an overnight culture of PA14 was added to 3 mL of PTSB medium together with 15 μL of Compound 6 dissolved in DMSO at different stock concentrations. The culture was incubated for 24 h at 37° C. and 200 rpm. 1.4 mL of the culture was centrifuged and the supernatant filtered through a sterile filter. Thereafter, 0.5 mL ECR-buffer (0.1 M Tris HCl, 1 mM CaCl2, pH=7.2) together with 10 mg Elastin-Congo Red was added to 0.5 ml of the sterile flow-through and the mixture incubated for 3 h at 37° C. and 1600 rpm. After the incubation, 0.1 mL Na2EDTA (0.12 M) was added to quench the enzymatic reaction. After mixing, the solution was centrifuged (10 min at 6000 rpm) and 0.2 mL of the supernatant measured at 495 nm in a 96 well plate. It was observed that Compound 6 is an efficient inhibitor of elastolytic activity in situ resulting in sigmoidal inhibition behaviour with an IC50 of 40 μM (cf. FIG. 9).

CCCCCCCc1[nH]c2ccccc2c(=S)c1O [Compound 6, 2-heptyl-3-hydroxyquinoline-4(1H)-thione]
MIC (B. subtilis): 125 µM and 34.4 µg/mL | MIC (Candida albicans): 100 µM and 27.5 µg/mL | MIC [1]: 150 µM and 41.3 µg/mL | MIC (S. aureus Mu50 (MRSA)): 150 µM and 41.3 µg/mL | MIC (S. aureus NCTC 8325): 100 µM and 27.5 µg/mL | MIC (S. aureus USA 300 (MRSA)): 150 µM and 41.3 µg/mL | IC50 (elastase (LasB) [2]): 4 µM | IC50 (elastase (LasB) [3]): 40 µM

From patent US10961196B2, “Compounds for use as an anti-bacterial or anti-fungal agent and as a zinc sensor” (UNIVERSITÄT KONSTANZ, priority 2016, dated 2021)
